Reference: PubChem BioAssay AID2060325 (Molecular Pharmacology Branch, DTP, NCI, 2025)

Tested on: SK-OV-3 multi-cell spheroids, viability
Assay: Anticancer human tumor SK-OV-3 cell line growth inhibition [IpAb];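 on viability, T/C: viability read after seven days of drug exposure; percent of DMSO vehicle control luminescence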
Settings: for IC50: curve of first compound; for viability, T/C: stronger effect = lower value
Outline: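 Multi-cell spheroids of 60% tumour cells, 25% HUVEC and 15% MSC in ultra-low-attachment U-bottom wells, treated with agents combined with ipatasertib or abemaciclib. Half-log ranges top out near clinical Cmax, or 10 microM when Cmax is unknown.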

[1] = second compound 0.01 µM, first compound 0.0316 µM
[2] = second compound 0.01 µM, first compound 0.1 µM
[3] = second compound 0.01 µM, first compound 0.316 µM
[4] = second compound 0.01 µM, first compound 1 µM
[5] = second compound 0.01 µM, first compound 3.16 µM
[6] = second compound 0.01 µM, first compound 10 µM
[7] = second compound 0.0316 µM, first compound 0.0316 µM
[8] = second compound 0.0316 µM, first compound 0.1 µM
[9] = second compound 0.0316 µM, first compound 0.316 µM
[10] = second compound 0.0316 µM, first compound 1 µM
[11] = second compound 0.0316 µM, first compound 3.16 µM
[12] = second compound 0.0316 µM, first compound 10 µM
[13] = second compound 0.1 µM, first compound 0.0316 µM
[14] = second compound 0.1 µM, first compound 0.1 µM
[15] = second compound 0.1 µM, first compound 0.316 µM
[16] = second compound 0.1 µM, first compound 1 µM
[17] = second compound 0.1 µM, first compound 3.16 µM
[18] = second compound 0.1 µM, first compound 10 µM
[19] = second compound 0.316 µM, first compound 0.0316 µM
[20] = second compound 0.316 µM, first compound 0.1 µM
[21] = second compound 0.316 µM, first compound 0.316 µM
[22] = second compound 0.316 µM, first compound 1 µM
[23] = second compound 0.316 µM, first compound 3.16 µM
[24] = second compound 0.316 µM, first compound 10 µM
[25] = second compound 1 µM, first compound 0.0316 µM
[26] = second compound 1 µM, first compound 0.1 µM
[27] = second compound 1 µM, first compound 0.316 µM
[28] = second compound 1 µM, first compound 1 µM
[29] = second compound 1 µM, first compound 3.16 µM
[30] = second compound 1 µM, first compound 10 µM

C=CCn1c(=O)c2cnc(Nc3ccc(N4CCN(C)CC4)cc3)nc2n1-c1cccc(C(C)(C)O)n1 + CCN1CCN(Cc2ccc(Nc3ncc(F)c(-c4cc(F)c5nc(C)n(C(C)C)c5c4)n3)nc2)CC1
IC50 (second compound 0.01 µM): 90 nM | IC50 (second compound 0.0316 µM): 55.9 nM | IC50 (second compound 0.1 µM): < 31.6 nM | IC50 (second compound 0.316 µM): 39.3 nM | IC50 (second compound 1 µM): < 31.6 nM | viability, T/C [1]: 83.9% | viability, T/C [2]: 46.6% | viability, T/C [3]: 13.1% | viability, T/C [4]: 7.77% | viability, T/C [5]: 4.03% | viability, T/C [6]: 6.24% | viability, T/C [7]: 63.7% | viability, T/C [8]: 36% | viability, T/C [9]: 12.1% | viability, T/C [10]: 8.26% | viability, T/C [11]: 6.84% | viability, T/C [12]: 6.66% | viability, T/C [13]: 49.2% | viability, T/C [14]: 36.3% | viability, T/C [15]: 14.4% | viability, T/C [16]: 9.93% | viability, T/C [17]: 5.86% | viability, T/C [18]: 8.17% | viability, T/C [19]: 53.5% | viability, T/C [20]: 34.8% | viability, T/C [21]: 17.9% | viability, T/C [22]: 15% | viability, T/C [23]: 10.3% | viability, T/C [24]: 10.5% | viability, T/C [25]: 36.4% | viability, T/C [26]: 29.3% | viability, T/C [27]: 19.7% | viability, T/C [28]: 16.9% | viability, T/C [29]: 17.4% | viability, T/C [30]: 15.6%

CC(C)n1nc(-c2ccc3oc(N)nc3c2)c2c(N)ncnc21 + CCN1CCN(Cc2ccc(Nc3ncc(F)c(-c4cc(F)c5nc(C)n(C(C)C)c5c4)n3)nc2)CC1
IC50 (second compound 0.01 µM): 1.65 nM | IC50 (second compound 0.0316 µM): 1.23 nM | IC50 (second compound 0.1 µM): 0.577 nM | IC50 (second compound 0.316 µM): 0.381 nM | IC50 (second compound 1 µM): < 0.316 nM | viability, T/C (second compound 0.01 µM, first compound 0.000316 µM): 76.7% | viability, T/C (second compound 0.01 µM, first compound 0.001 µM): 59.3% | viability, T/C (second compound 0.01 µM, first compound 0.00316 µM): 37.8% | viability, T/C (second compound 0.01 µM, first compound 0.01 µM): 19% | viability, T/C [1]: 8.77% | viability, T/C [2]: 7.65% | viability, T/C (second compound 0.0316 µM, first compound 0.000316 µM): 64.4% | viability, T/C (second compound 0.0316 µM, first compound 0.001 µM): 54.8% | viability, T/C (second compound 0.0316 µM, first compound 0.00316 µM): 31.3% | viability, T/C (second compound 0.0316 µM, first compound 0.01 µM): 16.1% | viability, T/C [7]: 11.6% | viability, T/C [8]: 7.01% | viability, T/C (second compound 0.1 µM, first compound 0.000316 µM): 55.4% | viability, T/C (second compound 0.1 µM, first compound 0.001 µM): 45.4% | viability, T/C (second compound 0.1 µM, first compound 0.00316 µM): 28.1% | viability, T/C (second compound 0.1 µM, first compound 0.01 µM): 16% | viability, T/C [13]: 10.8% | viability, T/C [14]: 7.2% | viability, T/C (second compound 0.316 µM, first compound 0.000316 µM): 51.5% | viability, T/C (second compound 0.316 µM, first compound 0.001 µM): 41.4% | viability, T/C (second compound 0.316 µM, first compound 0.00316 µM): 26.2% | viability, T/C (second compound 0.316 µM, first compound 0.01 µM): 18.1% | viability, T/C [19]: 14.3% | viability, T/C [20]: 9.24% | viability, T/C (second compound 1 µM, first compound 0.000316 µM): 40.7% | viability, T/C (second compound 1 µM, first compound 0.001 µM): 34.2% | viability, T/C (second compound 1 µM, first compound 0.00316 µM): 27.9% | viability, T/C (second compound 1 µM, first compound 0.01 µM): 21.2% | viability, T/C [25]: 15.9% | viability, T/C [26]: 13.2%

CC1(C)CCC(CN2CCN(c3ccc(C(=O)NS(=O)(=O)c4ccc(NCC5CCOCC5)c([N+](=O)[O-])c4)c(Oc4cnc5[nH]ccc5c4)c3)CC2)=C(c2ccc(Cl)cc2)C1 + CCN1CCN(Cc2ccc(Nc3ncc(F)c(-c4cc(F)c5nc(C)n(C(C)C)c5c4)n3)nc2)CC1
IC50 (second compound 0.01 µM): 2540 nM | IC50 (second compound 0.0316 µM): 2450 nM | IC50 (second compound 0.1 µM): 722 nM | IC50 (second compound 0.316 µM): 316 nM | IC50 (second compound 1 µM): < 31.6 nM | viability, T/C [1]: 92.7% | viability, T/C [2]: 96.9% | viability, T/C [3]: 90% | viability, T/C [4]: 71.8% | viability, T/C [5]: 45.3% | viability, T/C [6]: 18.2% | viability, T/C [7]: 78.7% | viability, T/C [8]: 74.3% | viability, T/C [9]: 79.6% | viability, T/C [10]: 68.5% | viability, T/C [11]: 44.7% | viability, T/C [12]: 17.9% | viability, T/C [13]: 60.7% | viability, T/C [14]: 59.2% | viability, T/C [15]: 55.2% | viability, T/C [16]: 48% | viability, T/C [17]: 34.4% | viability, T/C [18]: 14.3% | viability, T/C [19]: 55.8% | viability, T/C [20]: 53.5% | viability, T/C [21]: 52.7% | viability, T/C [22]: 39.9% | viability, T/C [23]: 31.5% | viability, T/C [24]: 10.4% | viability, T/C [25]: 44.5% | viability, T/C [26]: 47.3% | viability, T/C [27]: 42.3% | viability, T/C [28]: 38.3% | viability, T/C [29]: 31.9% | viability, T/C [30]: 12.9%

CCCS(=O)(=O)Nc1ccc(F)c(C(=O)c2c[nH]c3ncc(-c4ccc(Cl)cc4)cc23)c1F + CCN1CCN(Cc2ccc(Nc3ncc(F)c(-c4cc(F)c5nc(C)n(C(C)C)c5c4)n3)nc2)CC1
IC50 (second compound 0.01 µM): 9390 nM | IC50 (second compound 0.0316 µM): 5140 nM | IC50 (second compound 0.1 µM): 1240 nM | IC50 (second compound 0.316 µM): 822 nM | IC50 (second compound 1 µM): < 31.6 nM | viability, T/C [1]: 95.1% | viability, T/C [2]: 93.5% | viability, T/C [3]: 89.1% | viability, T/C [4]: 85.5% | viability, T/C [5]: 80.3% | viability, T/C [6]: 48% | viability, T/C [7]: 70.1% | viability, T/C [8]: 69.7% | viability, T/C [9]: 70.3% | viability, T/C [10]: 68.1% | viability, T/C [11]: 65.3% | viability, T/C [12]: 29.3% | viability, T/C [13]: 55.3% | viability, T/C [14]: 59.5% | viability, T/C [15]: 57.4% | viability, T/C [16]: 51.7% | viability, T/C [17]: 39.6% | viability, T/C [18]: 20.1% | viability, T/C [19]: 53.2% | viability, T/C [20]: 55.7% | viability, T/C [21]: 52.9% | viability, T/C [22]: 46.5% | viability, T/C [23]: 44.1% | viability, T/C [24]: 25.4% | viability, T/C [25]: 41.2% | viability, T/C [26]: 44.4% | viability, T/C [27]: 48.1% | viability, T/C [28]: 38.6% | viability, T/C [29]: 36.8% | viability, T/C [30]: 24.2%

Cn1cnc2c(F)c(Nc3ccc(Br)cc3Cl)c(C(=O)NOCCO)cc21 + CCN1CCN(Cc2ccc(Nc3ncc(F)c(-c4cc(F)c5nc(C)n(C(C)C)c5c4)n3)nc2)CC1
IC50 (second compound 0.01 µM): 1670 nM | IC50 (second compound 0.0316 µM): 1180 nM | IC50 (second compound 0.1 µM): 390 nM | IC50 (second compound 0.316 µM): 167 nM | IC50 (second compound 1 µM): < 9.49 nM | viability, T/C (second compound 0.01 µM, first compound 0.00949 µM): 90.9% | viability, T/C (second compound 0.01 µM, first compound 0.03 µM): 95.4% | viability, T/C (second compound 0.01 µM, first compound 0.0949 µM): 98% | viability, T/C (second compound 0.01 µM, first compound 0.3 µM): 96% | viability, T/C (second compound 0.01 µM, first compound 0.949 µM): 65.5% | viability, T/C (second compound 0.01 µM, first compound 3 µM): 33.9% | viability, T/C (second compound 0.0316 µM, first compound 0.00949 µM): 80.6% | viability, T/C (second compound 0.0316 µM, first compound 0.03 µM): 79.5% | viability, T/C (second compound 0.0316 µM, first compound 0.0949 µM): 84.1% | viability, T/C (second compound 0.0316 µM, first compound 0.3 µM): 75.1% | viability, T/C (second compound 0.0316 µM, first compound 0.949 µM): 55.5% | viability, T/C (second compound 0.0316 µM, first compound 3 µM): 27.1% | viability, T/C (second compound 0.1 µM, first compound 0.00949 µM): 59.8% | viability, T/C (second compound 0.1 µM, first compound 0.03 µM): 59.1% | viability, T/C (second compound 0.1 µM, first compound 0.0949 µM): 66.8% | viability, T/C (second compound 0.1 µM, first compound 0.3 µM): 51.2% | viability, T/C (second compound 0.1 µM, first compound 0.949 µM): 38.6% | viability, T/C (second compound 0.1 µM, first compound 3 µM): 28.2% | viability, T/C (second compound 0.316 µM, first compound 0.00949 µM): 61.7% | viability, T/C (second compound 0.316 µM, first compound 0.03 µM): 63.7% | viability, T/C (second compound 0.316 µM, first compound 0.0949 µM): 49.1% | viability, T/C (second compound 0.316 µM, first compound 0.3 µM): 47.4% | viability, T/C (second compound 0.316 µM, first compound 0.949 µM): 38.8% | viability, T/C (second compound 0.316 µM, first compound 3 µM): 28.4% | viability, T/C (second compound 1 µM, first compound 0.00949 µM): 41.8% | viability, T/C (second compound 1 µM, first compound 0.03 µM): 50.6% | viability, T/C (second compound 1 µM, first compound 0.0949 µM): 50.8% | viability, T/C (second compound 1 µM, first compound 0.3 µM): 44.6% | viability, T/C (second compound 1 µM, first compound 0.949 µM): 35.9% | viability, T/C (second compound 1 µM, first compound 3 µM): 24.2%
